Results taken from ChEMBL document CHEMBL4765232 (J Med Chem, 2016).
The source made the active and inactive calls. The calls are words filed in the database; no cut-off is given here.

What was measured:
[1] = target: T1, Cytochrome P450 1A2 (Homo sapiens, UniProt P05177); test: Time dependent inhibition of CYP1A2 (unknown origin); type: ADME
T1 sequence (P05177 whole entry): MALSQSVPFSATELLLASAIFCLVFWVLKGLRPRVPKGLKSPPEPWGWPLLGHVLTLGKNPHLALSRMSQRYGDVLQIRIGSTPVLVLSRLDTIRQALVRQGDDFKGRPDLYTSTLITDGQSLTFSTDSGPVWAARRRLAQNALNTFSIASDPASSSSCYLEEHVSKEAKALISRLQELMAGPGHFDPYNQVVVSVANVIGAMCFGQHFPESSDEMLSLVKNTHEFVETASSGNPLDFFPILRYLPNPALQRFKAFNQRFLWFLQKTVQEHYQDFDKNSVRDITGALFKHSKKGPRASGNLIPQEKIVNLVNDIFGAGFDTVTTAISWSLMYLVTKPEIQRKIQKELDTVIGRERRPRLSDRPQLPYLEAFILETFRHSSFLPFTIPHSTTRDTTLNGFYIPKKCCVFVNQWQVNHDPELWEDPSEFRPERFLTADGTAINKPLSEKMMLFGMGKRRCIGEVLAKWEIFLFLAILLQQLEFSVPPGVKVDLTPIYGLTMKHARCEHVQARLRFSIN

[2] = target: Cytochrome P450 2C9 (Homo sapiens, UniProt P11712); test: Time dependent inhibition of CYP2C9 (unknown origin); type: ADME
[3] = Protein binding in rat plasma assessed as bound fraction; type: ADME, cell-free; conditions: read-out: PPB (converted)
[4] = target: Cytochrome P450 2D6 (Homo sapiens, UniProt P10635); test: Time dependent inhibition of CYP2D6 (unknown origin); type: ADME
[5] = target: T2, Cytochrome P450 2C8 (Homo sapiens, UniProt P10632); test: Time dependent inhibition of CYP2C8 (unknown origin); type: ADME
T2 sequence (P10632 whole entry): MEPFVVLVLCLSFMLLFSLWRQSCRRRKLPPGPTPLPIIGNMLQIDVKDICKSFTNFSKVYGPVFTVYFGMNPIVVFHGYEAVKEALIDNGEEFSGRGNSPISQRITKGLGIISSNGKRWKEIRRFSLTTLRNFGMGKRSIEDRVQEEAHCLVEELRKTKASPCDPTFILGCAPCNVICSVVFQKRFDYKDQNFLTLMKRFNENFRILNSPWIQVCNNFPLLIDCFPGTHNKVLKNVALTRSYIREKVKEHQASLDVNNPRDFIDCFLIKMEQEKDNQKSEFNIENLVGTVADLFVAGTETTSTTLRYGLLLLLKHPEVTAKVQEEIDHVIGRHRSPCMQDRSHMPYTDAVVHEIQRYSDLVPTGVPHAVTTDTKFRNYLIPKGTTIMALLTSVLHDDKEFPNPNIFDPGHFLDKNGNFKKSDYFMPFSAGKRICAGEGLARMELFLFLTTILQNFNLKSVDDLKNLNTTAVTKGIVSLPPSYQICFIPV

[6] = Tmax in Sprague-Dawley rat at 25 mg/kg, po; type: ADME, organism-based; conditions: in vivo
[7] = target: T3, Histone-lysine N-methyltransferase EZH1 (Homo sapiens, UniProt Q92800)
T3 sequence (Q92800 whole entry): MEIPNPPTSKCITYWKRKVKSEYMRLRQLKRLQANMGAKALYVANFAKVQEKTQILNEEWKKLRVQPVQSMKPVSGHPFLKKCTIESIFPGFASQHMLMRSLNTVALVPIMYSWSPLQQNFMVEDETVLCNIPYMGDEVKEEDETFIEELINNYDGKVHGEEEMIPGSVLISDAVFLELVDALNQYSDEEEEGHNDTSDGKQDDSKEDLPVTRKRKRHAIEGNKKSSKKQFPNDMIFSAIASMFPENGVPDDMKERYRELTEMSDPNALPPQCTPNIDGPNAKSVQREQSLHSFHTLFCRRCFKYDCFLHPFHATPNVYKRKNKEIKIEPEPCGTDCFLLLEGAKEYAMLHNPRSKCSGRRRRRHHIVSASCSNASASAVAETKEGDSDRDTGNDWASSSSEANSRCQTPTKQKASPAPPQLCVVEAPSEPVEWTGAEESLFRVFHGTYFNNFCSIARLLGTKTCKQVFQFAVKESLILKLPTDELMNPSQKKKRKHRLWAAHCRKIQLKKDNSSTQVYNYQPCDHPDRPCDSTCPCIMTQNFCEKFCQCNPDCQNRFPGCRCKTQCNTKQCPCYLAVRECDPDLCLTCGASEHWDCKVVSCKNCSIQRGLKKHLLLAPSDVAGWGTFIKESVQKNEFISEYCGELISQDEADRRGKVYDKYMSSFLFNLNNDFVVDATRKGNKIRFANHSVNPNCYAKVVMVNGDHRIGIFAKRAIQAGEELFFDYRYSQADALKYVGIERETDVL
Description: Inhibition of EZH1 (unknown origin)

[8] = Volume of distribution at steady state in Beagle dog at 1 mg/kg, iv; type: ADME, organism-based, Canis lupus familiaris; conditions: in vivo, read-out: Vdss
[9] = Clearance in Balb/c mouse at 1 mg/kg, iv formulated with 5:60:35 DMA/PEG400/20% SBECD relative to liver blood flow; type: ADME, organism-based; conditions: in vivo
[10] = AUC (0 to infinity) in Sprague-Dawley rat at 25 mg/kg, po; type: ADME, organism-based; set-up: route oral, time infinity, dose 25 mg/kg; conditions: in vivo
[11] = Drug concentration in plasma of CB17 SCID mouse xenografted with human KARPAS-422 cells at 160 mg/kg, po BID administered for 17 days and measured up to 12 hrs post last dose by LC-MS analysis; type: ADME, organism-based; conditions: time 17 day
[12] = Unbound clearance in Balb/c mouse at 1 mg/kg, iv formulated with 5:60:35 DMA/PEG400/20% SBECD; type: ADME, organism-based; conditions: in vivo
[13] = target: CYP3A4 (Homo sapiens, UniProt P08684); test: Inhibition of CYP3A4 (unknown origin) at 10 uM relative to control; type: ADME
[14] = Oral bioavailability in Beagle dog at 5 mg/kg; type: ADME, organism-based, Canis lupus familiaris; conditions: in vivo
[15] = test system: KARPAS-422; test: Antitumor activity against human KARPAS-422 cells harboring EZH2 Y641N mutant xenografted in CB17 SCID mouse assessed as tumor regression at 160 mg/kg, po BID and measured within 2 weeks by caliper method; type: functional, organism-based
[16] = AUC (0 to infinity) in Beagle dog at 5 mg/kg, po; type: ADME, organism-based, Canis lupus familiaris; set-up: route oral, time infinity, dose 5 mg/kg; conditions: in vivo
[17] = Protein binding in human plasma assessed as bound fraction; type: ADME, cell-free; conditions: read-out: PPB (converted)
[18] = Drug concentration in tumor of CB17 SCID mouse xenografted with human KARPAS-422 cells at 160 mg/kg, po BID administered for 17 days and measured up to 12 hrs post last dose by LC-MS analysis; type: ADME, organism-based, Neoplasm; conditions: time 17 day, read-out: Ct
[19] = Fraction unbound in Beagle dog plasma; type: ADME, cell-free, Canis lupus familiaris
[20] = target: T4, CYP1A2 (Homo sapiens, UniProt P05177); test: Inhibition of CYP1A2 (unknown origin) at 10 uM relative to control; type: ADME
T4 sequence (P05177 whole entry): T1 sequence (P05177 whole entry)

Cytochrome P450 2C9, sequence (P11712 whole entry): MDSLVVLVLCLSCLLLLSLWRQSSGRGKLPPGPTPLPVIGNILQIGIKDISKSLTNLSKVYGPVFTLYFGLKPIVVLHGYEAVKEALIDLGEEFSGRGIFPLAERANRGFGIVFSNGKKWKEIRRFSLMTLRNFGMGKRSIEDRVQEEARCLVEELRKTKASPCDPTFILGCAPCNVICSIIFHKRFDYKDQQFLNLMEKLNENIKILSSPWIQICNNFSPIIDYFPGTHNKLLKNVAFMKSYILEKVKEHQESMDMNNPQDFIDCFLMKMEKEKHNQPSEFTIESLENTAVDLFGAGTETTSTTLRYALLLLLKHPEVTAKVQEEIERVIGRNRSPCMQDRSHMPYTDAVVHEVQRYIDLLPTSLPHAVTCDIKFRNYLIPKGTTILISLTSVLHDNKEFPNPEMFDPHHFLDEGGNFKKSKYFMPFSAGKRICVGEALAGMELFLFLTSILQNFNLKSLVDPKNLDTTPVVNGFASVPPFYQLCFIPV
CYP3A4, sequence (P08684 whole entry): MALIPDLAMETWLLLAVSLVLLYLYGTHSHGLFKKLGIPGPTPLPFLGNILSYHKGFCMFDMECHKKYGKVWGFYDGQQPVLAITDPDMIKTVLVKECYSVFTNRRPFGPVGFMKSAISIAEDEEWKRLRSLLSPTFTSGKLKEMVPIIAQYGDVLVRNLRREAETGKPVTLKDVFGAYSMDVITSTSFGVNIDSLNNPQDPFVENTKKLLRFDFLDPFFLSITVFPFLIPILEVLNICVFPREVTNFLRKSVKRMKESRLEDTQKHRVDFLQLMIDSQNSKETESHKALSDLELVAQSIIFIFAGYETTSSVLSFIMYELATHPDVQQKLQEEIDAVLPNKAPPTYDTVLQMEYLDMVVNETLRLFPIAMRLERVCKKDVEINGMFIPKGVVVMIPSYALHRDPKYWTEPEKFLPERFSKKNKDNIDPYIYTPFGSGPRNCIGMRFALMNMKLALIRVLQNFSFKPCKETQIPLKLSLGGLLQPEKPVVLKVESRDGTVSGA
Cytochrome P450 2D6, sequence (P10635 whole entry): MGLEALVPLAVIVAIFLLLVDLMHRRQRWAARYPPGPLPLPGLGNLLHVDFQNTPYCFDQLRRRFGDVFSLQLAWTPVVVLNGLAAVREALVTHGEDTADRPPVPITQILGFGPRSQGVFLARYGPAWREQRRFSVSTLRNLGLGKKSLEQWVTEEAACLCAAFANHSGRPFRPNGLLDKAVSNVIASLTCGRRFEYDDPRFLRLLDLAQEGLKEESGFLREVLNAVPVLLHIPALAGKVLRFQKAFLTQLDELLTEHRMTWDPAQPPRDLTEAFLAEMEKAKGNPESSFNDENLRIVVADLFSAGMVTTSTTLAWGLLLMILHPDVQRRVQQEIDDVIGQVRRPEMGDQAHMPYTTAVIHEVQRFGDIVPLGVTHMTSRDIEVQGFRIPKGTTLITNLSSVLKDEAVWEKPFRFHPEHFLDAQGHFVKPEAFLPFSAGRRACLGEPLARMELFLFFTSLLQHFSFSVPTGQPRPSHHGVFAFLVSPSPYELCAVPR

For `COc1cc(C)[nH]c(=O)c1CNC(=O)c1c(C)n([C@H](C)C2CCN(CC(F)(F)F)CC2)c2ccccc12` [CPI-1205], the TDI [1] was “Not Active”, the TDI [2] was “Not Active” and the fraction unbound [3] was 0.101. The TDI [4] was “Not Active”, the TDI [5] was “Not Active” and the Tmax [6] was 30 min. The IC50 [7] was 52 nM, the Vd [8] was 1.6 L/kg and the CL [9] was 40%. The AUC(0-inf) [10] was 7.06 µM·h, the concentration at 408 h [11] was 11400 ng/mL and the CL free [12] was 1715 mL/min/kg. For the same compound, the inhibition at 10 µM [13] was 0%, the F [14] was 46.2% and the Activity [15] was “Active”. It also gave an AUC(0-inf) [16] of 3.19 µM·h, a fraction unbound [17] of 0.072 and a concentration at 408 h [18] of 5290 ng/g. It also gave a Fu [19] of 0.021% and an inhibition at 10 µM [20] of 15%.
